Here are results for 6 compounds from patent US4198504A, “[3-(Pyridinium)-7-(naphthyiridinyl carbonylamino)acetamido]cephalosporanic acid derivatives” (Bristol-Myers Company, priority 1978, dated 1980).

The subject of series [1] is S. aureus. In words: In vitro MIC, serial two-fold agar dilution, primary evaluation Gp (S. aureus, 6 strains). The conditions noted are these: CBPC = 100%; geometric mean of MICs; Mueller-Hinton agar. The format is cell-based. Put shortly: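 Two-fold serial agar dilution on Mueller-Hinton agar (Steers' replicator); GP group is 6 S. aureus strains. Values are relative activity versus carbenicillin (set at 100%), calculated from the geometric mean of the group's MICs.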

In series [2] the test system is E. coli (9), Klebsiella sp. (2), Pr. mirabilis (1), Sal. enteritidis (1). The series is described as follows: In vitro MIC, serial two-fold agar dilution, primary evaluation Gn-I (E. coli, Klebsiella sp., Pr. mirabilis, Sal. enteritidis). The following applies: CBPC = 100%; geometric mean of MICs; Mueller-Hinton agar. The format is cell-based. The essentials: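 Two-fold serial agar dilution on Mueller-Hinton agar, inoculated with a Steers' replicator. Activity is expressed relative to carbenicillin set at 100%. Values are based on the geometric mean MIC per organism group.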

In series [3] the test system is Ent. cloacae (3), Pr. vulgaris (1), Pr. morganii (1), S. marcescen (1). In words: In vitro MIC, serial two-fold agar dilution, primary evaluation Gn-II (Ent. cloacae, Pr. vulgaris, Pr. morganii, S. marcescens). The format is cell-based. The conditions noted are these: CBPC = 100%; geometric mean of MICs; Mueller-Hinton agar. The essentials: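 MICs by two-fold serial agar dilution on Mueller-Hinton agar with a Steers replicator. Reported as activity relative to carbenicillin set at 100%, computed from geometric mean MICs over the strains in each group.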

Series [4] concerns Ps. aeruginosa. In words: In vitro MIC, serial two-fold agar dilution, primary evaluation Ps (6 strains). The conditions noted are these: CBPC = 100%; geometric mean of MICs; Mueller-Hinton agar. The format is cell-based. The essentials: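 MIC by serial two-fold agar dilution on Mueller-Hinton agar (Steers' apparatus) against 6 Pseudomonas aeruginosa strains in primary screening. Values expressed as relative activity versus carbenicillin set at 100%, based on geometric mean MIC.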

Series [5] concerns Pseudomonas aeruginosa. The series is described as follows: In vitro MIC, serial two-fold agar dilution, secondary evaluation against Pseudomonas aeruginosa strains. The format is cell-based. The conditions noted are these: CBPC = 100%; geometric mean of MICs; 61-64 strains. Put shortly: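 Two-fold serial agar dilution on Mueller-Hinton agar (Steers' apparatus) against 64 P. aeruginosa strains. Values are relative activity versus carbenicillin set at 100%, based on geometric mean MICs.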

Series [6] relates to Staphylococcus aureus Smith. In words: In vivo efficacy, experimental infection in mice, intramuscular treatment, Staphylococcus aureus Smith. Also noted: species or system Staphylococcus aureus (infected mice). The following applies: im, 120 h, I.M., 100×LD50 challenge i.p., 5 days, read-out: PD50 Staphylococcus aureus Smith. Here is the method: (§1) The in vivo efficacy was evaluated by intramuscular treatment against three kinds of experimental infection in mice.
(§2) The in vivo tests were carried out using the following three pathogenic organisms:
Staphylococcus aureus Smith
(§3) Mice were challenged intraperitoneally with approximately a 100×LD50 dose of the pathogens in a 5% mucin suspension. The mice were treated with test compound by I.M. route immediately after the bacterial challenge.

In series [7] the test system is Escherichia coli Juhl. The series is described as follows: In vivo efficacy, experimental infection in mice, intramuscular treatment, Escherichia coli Juhl. Also noted: species or system Escherichia coli (infected mice). The following applies: im, 120 h, I.M., 100×LD50 challenge i.p., 5 days, read-out: PD50 Escherichia coli Juhl. Here is the method: as §1, §2, §3

Series [8] concerns Pseudomonas aeruginosa A9843. In words: In vivo efficacy, experimental infection in mice, intramuscular treatment, Pseudomonas aeruginosa A9843. Also noted: species or system Pseudomonas aeruginosa (infected mice). The following applies: A9843, im, 120 h, I.M., 100×LD50 challenge i.p., 5 days, read-out: PD50 Pseudomonas aeruginosa A9843. The method, then:
as §1, §2
Pseudomonas aeruginosa A9843
as §3

Series [9] can be described thus: Antibiotic blood levels in mice following intramuscular administration (paper disc-agar diffusion, Escherichia coli NIHJ as assay organism). The format is in vivo. The following applies: mouse, im, I.M., 20 mg./kg.; for half-life: read-out: Blood level, Half-life; for Cmax: read-out: Blood level, Peak Concentration. The method, then:
Antibiotic blood levels were determined in mice following intramuscular administration of the test compounds at 20 mg./kg. The blood samples were collected from the orbital sinuses into heparinized capillary tubes at 15, 30, 60 and 120 minutes after administration. The antibiotic concentration was determined by the paper disc-agar diffusion method using Escherichia coli NIHJ as the assay organism.

A short description of series [10]: Solubility in water. The format is physicochemical. The conditions noted are these: lyophilized product, read-out: dissolved readily in water to give a solution. Here is the method:
This unfortunate characteristic renders them unsuitable for use by intravenous administration. Acceptable solubility for such use is at least 125 mgm./ml. so that 250 mgm. can be administered in 2 ml. of sterile solution. Suspensions cannot, of course, be administered intravenously. […] The latter would make possible a dosage of 500 mgm. in a 2 ml. vial.
To a mixture of nicotinic acid (492 mg., 4 m.moles) and NaHCO3 (336 mg., 4 m.moles) in 2 ml. of water were added sodium 7-[D-α-(4-hydroxy-1,5-naphthyridine-3-carboxamido)-α-phenylacetamido]cephalosporanate^(3), (600 mg., 1 m.mole) and KSCN (2.4 g., 25 m.moles) and the mixture was allowed to stand overnight at 50°-52° C. The reaction mixture was placed on the top of an HP-20 column (.phi. 10 mm., 90 ml.). The column was developed with 1 L each of water, 30% aqueous MeOH and 50% aqueous MeOH. The eluate was collected in 20-ml. fractions, monitoring with tlc (silica-gel plate, CH3 CN:H2 O=4:1, detected with I2). The desired product was found in the fractions eluted with 30% aqueous MeOH, which were combined and concentrated under reduced pressure. The concentrates showing a neutral pH were lyophilized to give 105 mg. (16%) of BB-S606, which dissolved readily in water to give a 25% (w/v) solution. It started to melt around 280° C. with gradual decomposition.

Values after ≈ are worked out from the molar mass of the structure shown.

On to `O=C(O)Cc1ccc[n+](CC2=C(C(=O)[O-])N3C(=O)C(NC(=O)[C@H](NC(=O)c4cnc5cccnc5c4O)c4ccc(O)c(Cl)c4)C3SC2)c1` (stereo partly drawn) [BB-S604, 7-[D-α-(4-Hydroxy-1,5-naphthyridine-3-carboxamido)-α-(3-chloro-4-hydroxyphenyl)acetamido]-3-(3-carboxymethylpyridinium)-methyl-3-cephem-4-carboxylate], for which the “In vitro relative activity, primary evaluation Gp (6)” value in series [1] amounted to 50%. Further, in [2], the “In vitro relative activity, primary evaluation Gn-I (13)” value (“In vitro relative activity … (13)” for short) is given as 94%. Further, the “In vitro relative activity, primary evaluation Gn-II (6)” value in series [3] turned out to be 45%. For the same compound, the “In vitro relative activity, primary evaluation Ps (6)” value in [4] is 1450%. In [5], the “In vitro relative activity, secondary, Pseudomonas aeruginosa (61-64)” value (“In vitro relative activity, secondary” below) is listed as 2030%. Also, the ED50 was found to be 2.5 mg/kg in series [6], 2.4 mg/kg in series [7] and 6.2 mg/kg in series [8]. Besides, the half-life in series [9] was 56 min. Further, the Cmax in series [9] worked out at 10500 ng/mL.
Regarding `O=C([O-])C1=C(C[n+]2ccc(CCS(=O)(=O)O)cc2)CSC2C(NC(=O)[C@H](NC(=O)c3cnc4cccnc4c3O)c3ccc(O)c(Cl)c3)C(=O)N12` (stereo partly drawn) [BB-S605, 7-[D-α-(4-Hydroxy-1,5-naphthyridine-3-carboxamido)-α-(3-chloro-4-hydroxyphenyl)acetamido]-3-(4-sulfoethylpyridinium)-methyl-3-cephem-4-carboxylate], in series [1], the “In vitro relative activity, primary evaluation Gp (6)” value came out at 40%. In series [2], the “In vitro relative activity … (13)” value was 83%. The “In vitro relative activity, primary evaluation Gn-II (6)” value in series [3] is 40%. The “In vitro relative activity, primary evaluation Ps (6)” value in series [4] was found to be 1310%. For the same compound, the “In vitro relative activity, secondary” value in [5] is listed as 1300%. Further, the results for the ED50 in series [6], in series [7] and in series [8] were 3.1 mg/kg, 3.1 mg/kg and 8.4 mg/kg, respectively. For the same compound, the half-life in series [9] was determined as 54 min. In series [9], the Cmax was 9400 ng/mL.
On to `O=C([O-])C1=C(C[n+]2cccc(C(=O)O)c2)CSC2C(NC(=O)[C@H](NC(=O)c3cnc4cccnc4c3O)c3ccccc3)C(=O)N12` (stereo partly drawn) [BB-S606, 7-[D-α-(4-Hydroxy-1,5-naphthyridine-3-carboxamido)-α-phenyl-acetamido]-3-(3-carboxypyridinium)methyl-3-cephem-4-carboxylate], for which, in series [1], the “In vitro relative activity, primary evaluation Gp (6)” value is 45%. Also, in series [2], the “In vitro relative activity … (13)” value was determined as 16%. Also, the “In vitro relative activity, primary evaluation Gn-II (6)” value in series [3] is recorded as 11%. For the same compound, the “In vitro relative activity, primary evaluation Ps (6)” value in series [4] worked out at 656%. Also, the “In vitro relative activity, secondary” value in series [5] came out at 624%. In addition, in series [6], the ED50 turned out to be 4.2 mg/kg. Further, the ED50 in series [8] came out at 25 mg/kg. For the same compound, in series [9], the half-life is 55 min and the Cmax stood at 11000 ng/mL. For the same compound, in series [10], the solubility was 250 mg/mL (≈ 390 mM).
On to `O=C([O-])C1=C(C[n+]2cccc(C(=O)O)c2)CSC2C(NC(=O)[C@H](NC(=O)c3cnc4cccnc4c3O)c3ccc(O)c(O)c3)C(=O)N12` (stereo partly drawn) [BB-S608], for which the “In vitro relative activity, primary evaluation Gp (6)” value in series [1] amounted to 13%. Besides, in series [2], the “In vitro relative activity … (13)” value is reported as 53%. Moreover, the “In vitro relative activity, primary evaluation Gn-II (6)” value in series [3] turned out to be 14%. The “In vitro relative activity, primary evaluation Ps (6)” value in series [4] was determined as 975%. In addition, the “In vitro relative activity, secondary” value in [5] is 1207%. Also, the ED50 in [6] came out at 8.5 mg/kg; in [7] it was 1.4 mg/kg; in series [8] it was 2.4 mg/kg. In addition, in series [9], the half-life stood at 50 min. Also, in [9], the Cmax came to 8500 ng/mL.
With `O=C([O-])C1=C(C[n+]2cccc(S(=O)(=O)O)c2)CSC2C(NC(=O)[C@H](NC(=O)c3cnc4cccnc4c3O)c3ccc(O)c(O)c3)C(=O)N12` (stereo partly drawn) [BB-S609, 7-[D-α-(4-Hydroxy-1,5-naphthyridine-3-carboxamido)-α-(3,4-dihydroxyphenyl)acetamido]-3-(3-sulfopyridinium)methyl-3-cephem-4-carboxylate], in series [1], the “In vitro relative activity, primary evaluation Gp (6)” value is on record as 18%. Besides, the “In vitro relative activity … (13)” value in [2] is reported as 53%. The “In vitro relative activity, primary evaluation Gn-II (6)” value in [3] worked out at 11%. Besides, in [4], the “In vitro relative activity, primary evaluation Ps (6)” value worked out at 1450%. In addition, the “In vitro relative activity, secondary” value in series [5] worked out at 1375%. Moreover, the ED50 in series [6] worked out at 17 mg/kg; in [7], 1.8 mg/kg; in [8] it was 1.2 mg/kg. Also, the half-life in series [9] was determined as 51 min. Also, the Cmax in series [9] came out at 7400 ng/mL.
Turning to `O=C(O)C=Cc1ccc[n+](CC2=C(C(=O)[O-])N3C(=O)C(NC(=O)[C@H](NC(=O)c4cnc5cccnc5c4O)c4ccc(O)c(O)c4)C3SC2)c1` (stereo partly drawn) [BB-S610], in series [1], the “In vitro relative activity, primary evaluation Gp (6)” value amounted to 16%. Also, the “In vitro relative activity … (13)” value in series [2] was 57%. Besides, the “In vitro relative activity, primary evaluation Gn-II (6)” value in [3] was determined as 14%. The “In vitro relative activity, primary evaluation Ps (6)” value in series [4] is on record as 656%. Further, in series [5], the “In vitro relative activity, secondary” value is 491%. Further, the ED50 in series [6] turned out to be 17 mg/kg; in series [7] it was 1.8 mg/kg; in series [8], 2.8 mg/kg. Further, in [9], the half-life was 60 min. In series [9], the Cmax came out at 6200 ng/mL.
